{"source": "patent US20240148809A1", "about": "“CANNABIS PREVENTS NK IN[…] CANCER AND INCREASES NK FUNCTION” (The Regents of the University of California, priority 2020, published 2024)", "key": {"PBMCs (IFN-γ) [1]": {"test_system": "PBMCs (IFN-γ)", "experiment": "ELISPOT for IFN-γ spots in PBMCs of breast cancer patient P38/P77 treated with CBD", "assay_type": "in vivo, human", "details": "in words", "experimental": "FIG. 10A-FIG. 10B show results of an enzyme-linked immunospot (ELISPOT) assay that was conducted to determine the numbers of IFN-γ spots representing the number of cells expressing IFN-γ. Treated (IL2, IL2+antiCD16, IL2+antiCD3/28) and untreated PMBC cells of a breast cancer patient P38 (who was treated with CBD) compared to two healthy control subjects, H43 and H44 (FIG. 10A). Treated (IL2, IL2+antiCD16, IL2+antiCD3/28) and untreated PMBC cells of a breast cancer patient P77 VB (who was treated with CBD) compared to a healthy control subject, H74 (FIG. 10B).\n80 μl of anti-human IFN-γ capture antibody was added to each well of a 96-well high-protein-binding PVDF filter plate and incubated overnight at 4° C. The plate was washed with […] of PBS once before adding samples into the plate. 50,000 cells in 200 μl of RPMI were added into each well and incubate at 37° C., 5% CO2 overnight. After incubation, the plate was washed twice with 200 μl PBS followed by 0.05% 200 μl Tween-PBS twice. […] of anti-human IFN-γ detection antibody was added into each well and incubated at room temperature for 2 hours and the plate was washed three times with 200 μI/well of 0.05% Tween-PBS. 80 μI/well of tertiary solution which was made from 1:1000 diluted Strep-AP was added in the plate and incubated for 30 minutes. […]"}, "[2]": {"test_system": "Oral Squamous Carcinoma Cells (OSCCs)", "experiment": "Cell death assay in OSCCs (loss of forward scatter and propidium iodide staining, flow cytometry)", "assay_type": "cell-based, human", "details": "for % PI: Percent cell death induced in total population of tumor cells, as visualized by PI / % decrease in FS: Percent of cells that lost FS in total population of tumor cells: OSCC, overnight", "experimental": "(§1) Oral Squamous Carcinoma Cells (OSCCs) and stem-like Oral Squamous Carcinoma Stem Cells (OSCSCs) were isolated from tumors of oral cancer patients at UCLA, and cultured in RPMI 1640 supplemented with 10% FBS (Gemini Bio-Products, CA, USA), 1.4% antibiotic antimycotic, 1% sodium pyruvate, 1.4% non-essential amino acids, 1% L-glutamine, 0.2% gentamicin (Gemini Bio-Products, CA, USA), and 0.15% sodium bicarbonate (Fisher Scientific, PA, USA).\n(§2) OSCCs and OSCSCs were treated with different concentrations of Win55,2122-2 and cis-diamminedichloridoplatinum (II) (CDDP) as shown in FIGS. 1A-1B, FIG. 2 and Tables 1 and 2, and cultured overnight at 37 C in 5% CO2.\n(§3) After an overnight incubation the cells were washed twice and stained with Propidium iodide at a concentration of […], as described by Jewett, A., et al., J Immunol, 1997. 159(10): p. 4815-22; Jewett, A. and B. Bonavida, J Clin Immunol, 1995. 15(1): p. 35-44; and Jewett, A. and B. Bonavida, J Immunol, 1996. 156(3): p. 907-15, each of which is incorporated herein by reference in its entirety.\n(§4) Flow cytometric analysis was performed using Attune flow cytometer. Briefly, cells were analyzed based on Forward angle light scatter (FS) and Side scatter (SS), and the proportions of cells that had lost FS and became small were determined in total populations of tumor cells. Untreated and DMSO treated tumors were used as controls. In addition, the proportions of cells that were stained with PI were also determined.\nOSCCs are differentiated oral squamous carcinoma cells; OSCCs were treated with different concentrations of Win55,2122-2, as indicated in FIGS. 1A-1B and Table 1."}, "CD3+ T cells (IFN-γ)": {"test_system": "CD3+ T cells (IFN-γ)", "experiment": "IFN-γ ELISA of culture supernatants of CD3+ T cells from splenocytes of treated hu-BLT mice", "assay_type": "in vivo", "details": "IP for 27 days, in words", "experimental": "(§5) PBMCs (FIG. 11A and FIG. 11B) and CD3+ T cells (FIG. 11C) were isolated from hu-BLT mice after treatment of WIN 55,212-2 (intraperitoneal (IP) injection every 2 days at 2 mg/Kg in DMSO+saline for 27 days before sacrifice) or IL-15 (IP injection of 5 μg per mice for 27 days). PBMCs were isolated from peripheral blood and treated with IL-2 (1000 u/ml) overnight before they were used in 51 Cr release assay. The Lytic units (LU) 30/10^6 cells were determined by plotting the % cytotoxicity obtained at different effector to target ratios, and using that curve to determine the inverse number of NK cells required to lyse 30% of OSCSCs×100. The numbers of LU were then adjusted based on the % of NK cells obtained by flow cytometric analysis (FIG. 11A). PBMCs and CD3+ T cells culture supernatants were collected and IFN-γ secretions were determined using ELISA (FIG. 11B and FIG. 11C). CD3 T cells were isolated from splenocytes by negative selection of CD3+ T cells using an isolation kit (Stem cell technologies)."}, "PBMCs (IFN-γ) [3]": {"test_system": "PBMCs (IFN-γ)", "experiment": "IFN-γ ELISA of PBMC culture supernatants of treated hu-BLT mice", "assay_type": "in vivo", "details": "IP for 27 days, in words", "experimental": "as §5"}, "[4]": {"test_system": "NK cells in PBMCs (cytotoxicity against OSCSCs)", "experiment": "51Cr release assay with PBMCs of treated hu-BLT mice against OSCSCs", "assay_type": "in vivo", "details": "IP for 27 days, PBMCs treated with IL-2 overnight, in words", "experimental": "as §5"}, "[5]": {"test_system": "Oral Squamous Carcinoma Stem Cells (OSCSCs)", "experiment": "Cell death assay in OSCSCs (loss of forward scatter and propidium iodide staining, flow cytometry)", "assay_type": "cell-based, human", "details": "for % PI: propidium iodide staining / % of decrease in FS: Percent of cells that lost FS in total population of tumor cells: overnight", "experimental": "as §1, §2, §3, §4\nOSCSCs are stem like oral squamous carcinoma cells; OSCSCs were treated with different concentrations of Win55,2122-2, as indicated in FIG. 2 and Table 2."}}, "data": [{"compound": "C=C(C)[C@@H]1CCC(C)=C[C@H]1c1c(O)cc(CCCCC)cc1O", "note": "[CBD, Cannabidiol]", "values": [{"measurement": "PBMC expression of IFN-γ (ELISPOT) compared to healthy control", "setting": "PBMCs (IFN-γ) [1]", "value": "Comparable"}]}, {"compound": "N.N.[Cl][Pt][Cl]", "note": "[CDDP, cis-diamminedichloridoplatinum (II)]", "values": [{"measurement": "% PI: Percent cell death induced in total population of tumor cells, as visualized by PI", "setting": "[2]; 30 μg/ml", "value": 23.8, "unit": "%"}, {"measurement": "% decrease in FS: Percent of cells that lost FS in total population of tumor cells", "setting": "[2]; 30 μg/ml", "value": 51, "unit": "%"}, {"measurement": "% PI: Percent cell death induced in total population of tumor cells, as visualized by PI", "setting": "[2]; 50 μg/ml", "value": 18.9, "unit": "%"}, {"measurement": "% decrease in FS: Percent of cells that lost FS in total population of tumor cells", "setting": "[2]; 50 μg/ml", "value": 53, "unit": "%"}]}, {"compound": "CS(=O)(=O)O.Cc1c(C(=O)c2cccc3ccccc23)c2cccc3c2n1[C@H](CN1CCOCC1)CO3", "note": "[Win55,2122-2, (R)-(+)-[2,3-Dihydro-5-methyl-3-(4-morpholinylmethyl)pyrrolo[1,2,3-de]-1,4-benzoxazin-6-yl]-1-naphthalenylmethanone mesylate]", "values": [{"measurement": "IFN-γ secretion in CD3+ T cells", "setting": "CD3+ T cells (IFN-γ)", "value": "higher"}, {"measurement": "IFN-γ secretion in PBMC", "setting": "PBMCs (IFN-γ) [3]", "value": "higher"}, {"measurement": "NK cell mediated cytotoxicity in PBMC", "setting": "[4]", "value": "higher"}, {"measurement": "% PI: propidium iodide staining", "setting": "[5]; 5 μM", "value": 11.5, "unit": "%"}, {"measurement": "% of decrease in FS: Percent of cells that lost FS in total population of tumor cells", "setting": "[5]; 5 μM", "value": 15, "unit": "%"}, {"measurement": "% PI: propidium iodide staining", "setting": "[5]; 25 μM", "value": 26.3, "unit": "%"}, {"measurement": "% of decrease in FS: Percent of cells that lost FS in total population of tumor cells", "setting": "[5]; 25 μM", "value": 24, "unit": "%"}, {"measurement": "% PI: propidium iodide staining", "setting": "[5]; 50 μM", "value": 21.7, "unit": "%"}, {"measurement": "% of decrease in FS: Percent of cells that lost FS in total population of tumor cells", "setting": "[5]; 50 μM", "value": 16, "unit": "%"}, {"measurement": "cell death by staining with PI", "setting": "[5]; compared to untreated or DMSO treated tumors, in words", "value": "no or moderate levels of cell death"}, {"measurement": "change of FS", "setting": "[5]; even at the higher concentrations, in words", "value": "did not change FS"}, {"measurement": "% PI: Percent cell death induced in total population of tumor cells, as visualized by PI", "setting": "[2]; 5 μM", "value": 23.1, "unit": "%"}, {"measurement": "% decrease in FS: Percent of cells that lost FS in total population of tumor cells", "setting": "[2]; 5 μM", "value": 52, "unit": "%"}, {"measurement": "% PI: Percent cell death induced in total population of tumor cells, as visualized by PI", "setting": "[2]; 25 μM", "value": 32.9, "unit": "%"}, {"measurement": "% decrease in FS: Percent of cells that lost FS in total population of tumor cells", "setting": "[2]; 25 μM", "value": 75, "unit": "%"}, {"measurement": "% PI: Percent cell death induced in total population of tumor cells, as visualized by PI", "setting": "[2]; 50 μM", "value": 51.6, "unit": "%"}, {"measurement": "% decrease in FS: Percent of cells that lost FS in total population of tumor cells", "setting": "[2]; 50 μM", "value": 78, "unit": "%"}, {"measurement": "% PI: Percent cell death induced in total population of tumor cells, as visualized by PI", "setting": "[2]; 100 μM", "value": 51.6, "unit": "%"}, {"measurement": "% decrease in FS: Percent of cells that lost FS in total population of tumor cells", "setting": "[2]; 100 μM", "value": 77, "unit": "%"}, {"measurement": "induction of cell death in differentiated oral tumors", "setting": "[2]; OSCCs, in words", "value": "potent inducer of cell death"}]}, {"compound": "IL-15: IL-15, IP injection of 5 μg per mice for 27 days in hu-BLT mice", "values": [{"measurement": "IFN-γ secretion in CD3+ T cells", "setting": "CD3+ T cells (IFN-γ)", "value": "higher"}, {"measurement": "NK cell mediated cytotoxicity in PBMC", "setting": "[4]", "value": "higher"}]}]}
